Where a name gives a salt, the structure may show the parent alone.
How the values were obtained:
Format in all cases: cell-based, human
[1] = system: sporadic PD patient fibroblasts; assay: Cellular ATP levels in sporadic PD patient fibroblasts, full ATP assay; conditions: 24 h, 3 sporadic PD patient fibroblasts; for EC50: 8-point range 0.06 nM-300 nM; for Emax at 0.3 µM: max response with highest dose of compound (300 nM), read-out: ATP % of vehicle, top %; for activity at 60 pM: max response with lowest dose of compound (0.06 nM), read-out: ATP % of vehicle, bottom %
Procedure: (§1) Primary fibroblast cells were cultured continuously in Glucose based medium (high glucose (4500 mg/L) Dulbecco's Modified Eagle's medium (DMEM; Sigma-Aldrich) supplemented with 10% fetal bovine serum (Sigma-Aldrich), 100 IU/mL penicillin, 100 μg/mL streptomycin (Lonza), 1 mM sodium pyruvate (Sigma-Aldrich) and 50 μg/mL uridine (Sigma-Aldrich)). Unless otherwise stated, 24 hours prior to analysis, the Glucose based medium was exchanged for Galactose based medium (glucose-free DMEM (Gibco) with the same supplementation and in addition, 5 mM galactose (Sigma-Aldrich)). All cells were assessed between passage 6-10.
The ATP protocol is generally as described in Mortiboys et al 2008. Briefly, fibroblasts were cultured as and plated into white 384 well plates at a concentration of 5000 cells per well in 50 μl of media volume. The plates are left overnight in an incubator to allow the fibroblasts to adhere to the plate surface. The following morning the Glucose based medium is replaced with 25 μl of Galactose based medium. The plates were then spiked with the compounds using a ECHO 550 liquid handling system. The wells were dosed to provide an 8-point concentration range of 0.06 nM-300 nM of compound. After dosing the wells are topped up with a further 25 μl of Galactose based medium and then left in an incubator for 24 hours. Following this incubation, the medium is removed from the plate and the wells are washed twice with sterile PBS. The wells are filled with 25 μl of Sterile PBS followed by 12.5 μl of Lysis solution from the ATPlite™ Luminescence ATP detection assay system (Perkin Elmer), including 16 cell free wells to use as blank controls. The plate is then placed on a rotary shaker for 5 mins at 700 rpm. Following the shaking 12.5 μl of ATP substrate solution (Perkin Elmer) is added to each well and a further 5 min of shaking. The plate is then placed in darkness for 10 minutes prior to reading. Using a PHERAStar® plate reader, luminescence intensity is recorded. Following the ATP assay the plates are immediately assayed for DNA content in a CyQUANT® assay.
(§2) Immediately following The ATP assay DNA content is assessed with the CyQUANT® NF Cell Proliferation Assay Kit (ThermoFisher). CyQUANT® buffer is prepared immediately before the assay and is comprised of 1 μl CyQUANT® dye per ml×1 HBSS solution. 12.5 μl of CyQUANT® buffer is added to each well. Plate left in incubator for 1 hour then read on a PHERAStar© Plate reader with excitation at 497 nm and emission at 520 nm.
ATP Quantification for each well is determined using the following formula: […]
After the assays had been repeated in triplicate per line and compound the data was then inputted into Graph pad Prism 7 software suite where a dose response curve is generated using the default “[Agonist] vs response(three parameters)” equation.
From this EC50 values, lowest response and maximal response were taken and used to calculate the Geometric mean between the 5 different lines assessed.

[2] = system: sporadic PD patient fibroblasts; assay: Mitochondrial membrane potential (MMP, TMRM) in sporadic PD patient fibroblasts; conditions: 24 h, 3 sporadic PD patient fibroblasts; for EC50: 8-point range 0.06 nM-300 nM; for Emax: max response with highest dose of compound (300 nM), read-out: MMP % of vehicle, top %; for activity at 60 pM: max response with lowest dose of compound (0.06 nM), read-out: MMP % of vehicle, bottom %
Procedure: as §1
Fibroblasts were cultured and plated into a greiner black 384 μClear® plate at a concentration of 1000 cells per well in 50 μl of media volume. The plates are left overnight in an incubator to allow the fibroblasts to adhere to the plate surface. The following morning the Glucose based medium is replaced with 25 μl of Galactose based medium. The plates were then dosed with the compounds using an ECHO® 550 liquid handling system. The wells were dosed to provide an 8-point concentration range of 0.06 nM-300 nM of compound. After dosing the wells are topped up with a further 25 μl of Galactose based medium and then left in an incubator for 24 hours. After 24 hours, the medium is removed from the wells and replaced with 25 μl phenol free Minimal essential medium supplemented with 10% FBS, 1% Penicillin-streptomycin, 1% sodium pyruvate, 0.1% uridine, 1% non-essential amino acids and 1% MEM vitamins with 80 nM TMRM (Sigma) and 10 μM Hoechst Stain (Sigma). The plate is returned to the incubator for another hour after which the stain medium is removed and replaced with 25 μl Phenol free MEM. The plate is then imaged using an IN Cell high content microscope (GE Healthcare) with fields of view per well in 2 channels, Cy3 excitation 542 nm, emission 604-64 nm; and the DAPI excitation 350 nm, emission 450-55 nm at 37° C. with CO2. After imaging the plate is disposed of and the images are Data mined using the INCell developer Toolkit (GE Healthcare).
After the assays had been repeated in triplicate per line and compound the data was then inputted into Graph pad Prism 7 software suite where a dose response curve is generated using the default “[Agonist] vs response(three parameters)” equation. […]

[3] = system: sporadic PD patient fibroblasts; assay: Cellular ATP levels in sporadic PD patient fibroblasts, Preliminary ATP assay; conditions: for activity at 0.1 µM / activity at 1 µM: Homo sapiens, Fibroblast; for activity at 0.1 µM: read-out: Average ATP Response 100 nM; for activity at 1 µM: read-out: Average ATP Response 1 μM
Procedure: In some cases, a preliminary ATP protocol was used in which EC50 was not determined. The preliminary ATP protocol is generally as described in Mortiboys et al 2008. Briefly, fibroblasts were cultured and plated into white, clear-bottom 384 well plates at a concentration of 4000 cells per well in 50 μl of media volume. The plates are left overnight in an incubator to allow the fibroblasts to adhere to the plate surface. The following morning the Glucose based medium is replaced with 25 μl of Galactose based medium. The cells were then dosed with 100 nM and 1 μM concentrations of the compounds using a ECHO 550 liquid handling system. After dosing the wells are topped up with a further 25 μl of Galactose based medium and then left in an incubator for 24 hours. Following this incubation, the medium is removed from the plate and the wells are washed twice with sterile PBS. The wells are filled with 20 μl of Sterile PBS followed by 10 μl of Lysis solution from the ATPlite™ Luminescence ATP detection assay system (Perkin Elmer), including 14 cell free wells to use as blank controls. The plate is then placed on a rotary shaker for 10 mins at 700 rpm. Following the shaking 10 μl of ATP substrate solution (Perkin Elmer) is added to each well and a further 5 min of shaking. The plate is then incubated in the dark for 10 minutes prior to reading. Using a FLUOstar® Omega plate reader, luminescence intensity is recorded. Following the ATP assay the plates are immediately assayed for DNA content in a CyQUANT® assay.
as §2, with “of 2” for “of 1”, “solution. 10” for “solution. 12.5”, “well. Cell plates were then incubated” for “well. Plate left in incubator”, “hour before being” for “hour then”, “a FLUOStar®” for “a PHERAStar©”
The ATP Quantification for each well is determined as set out above.

[4] = 100 nM, 24 h, % of vehicle treated sPD fibroblasts, 3 sporadic PD patients
[5] = 1 μM, 24 h, % of vehicle treated sPD fibroblasts, 3 sporadic PD patients

C[C@H](CCCC(=O)O)[C@H]1CC[C@H]2[C@@H]3[C@@H](O)C[C@@H]4CN(C)CC[C@]4(C)[C@H]3CC[C@]12C [Compound 31b, N-Methyl-3-aza-7β-hydroxy-25-homo-5β-cholan-25-oic acid hydrotrifluoroacetate]
EC50 ([1]; Homo sapiens, Fibroblast): 0.266 nM | Emax at 0.3 µM ([1]; Homo sapiens, Fibroblast): 161% | activity at 60 pM ([1]; Homo sapiens, Fibroblast): 91.7% | EC50 ([2]; Homo sapiens, Fibroblast): 6.1 nM | Emax ([2]; Homo sapiens, Fibroblast): 95.1% | activity at 60 pM ([2]; Homo sapiens, Fibroblast): 86.5%

C[C@H](CCC(=O)O)[C@H]1CC[C@H]2[C@@H]3[C@@H](O)C[C@@H]4CN(C)CC[C@]4(C)[C@H]3CC[C@]12C [Compound 33, N-Methyl-3-aza-7β-hydroxy-5β-cholan-24-oic acid hydrochloride]
EC50 ([1]; hydrochloride): 0.75 nM | activity at 60 pM ([1]; Homo sapiens, Fibroblast): 88.8% | EC50 ([2]; hydrochloride): 18.3 nM | activity at 60 pM ([2]; Homo sapiens, Fibroblast): 82.3%

C[C@H](CCC(=O)O)[C@H]1CC[C@H]2[C@@H]3[C@@H](O)C[C@@H]4CN(C(=O)CO)CC[C@]4(C)[C@H]3CC[C@]12C [Compound 40a, N-Glycolyl-3-aza-7β-hydroxy-5β-cholan-24-oic acid]
EC50 ([1]; Homo sapiens, Fibroblast): 22.8 nM | Emax at 0.3 µM ([1]; Homo sapiens, Fibroblast): 103% | activity at 60 pM ([1]; Homo sapiens, Fibroblast): 89.9% | EC50 ([2]; Homo sapiens, Fibroblast): 65.3 nM | Emax ([2]; Homo sapiens, Fibroblast): 106% | activity at 60 pM ([2]; Homo sapiens, Fibroblast): 93.5%

CC(C)C[C@H](NC(=O)CCC[C@@H](C)[C@H]1CC[C@H]2[C@@H]3[C@@H](O)C[C@@H]4CNCC[C@]4(C)[C@H]3CC[C@]12C)C(=O)O [Compound 75b, N-(3-Aza-7β-hydroxy-25-homo-5β-cholan-25-oyl)-(S)-2-amino-4-methylpentanoic acid]
activity at 0.1 µM [3, 4]: 112% | activity at 1 µM [3, 5]: 106%

C[C@H](CCCC(=O)NCCCC[C@H](N)C(=O)O)[C@H]1CC[C@H]2[C@@H]3[C@@H](O)C[C@@H]4CNCC[C@]4(C)[C@H]3CC[C@]12C [Compound 76b, N-(3-Aza-7β-hydroxy-25-homo-5β-cholan-25-oyl)-(2S)-2,6-diaminohexanoic acid]
activity at 0.1 µM [3, 4]: 105% | activity at 1 µM [3, 5]: 106%

C[C@H](CCCC(=O)N[C@@H](Cc1ccc(O)cc1)C(=O)O)[C@H]1CC[C@H]2[C@@H]3[C@@H](O)C[C@@H]4CNCC[C@]4(C)[C@H]3CC[C@]12C [Compound 77b, N-(3-Aza-7β-hydroxy-25-homo-5β-cholan-25-oyl)-(2S)-2-amino-3-(4-hydroxyphenyl)propanoic acid]
activity at 0.1 µM [3, 4]: 109% | activity at 1 µM [3, 5]: 113%

C[C@H](CCC(=O)N1CC2(COC2)C1)[C@H]1CC[C@H]2[C@@H]3[C@@H](O)C[C@@H]4CN(C(=O)OCc5ccccc5)CC[C@]4(C)[C@H]3CC[C@]12C [Compound 78a, N-{(benzyloxycarbonyl)-3-aza-7β-hydroxy-5β-cholan-24-oyl}-2-oxa-6-azospiro{3,3}heptane]
activity at 0.1 µM [3, 4]: 121% | activity at 1 µM [3, 5]: 120%

C[C@H](CCC(=O)N1CCC(=O)CC1)[C@H]1CC[C@H]2[C@@H]3[C@@H](O)C[C@@H]4CN(C(=O)OCc5ccccc5)CC[C@]4(C)[C@H]3CC[C@]12C [Compound 79a, N-{(benzyloxycarbonyl)-3-aza-7β-hydroxy-5β-cholan-24-oyl}-4-piperidone]
activity at 0.1 µM [3, 4]: 116% | activity at 1 µM [3, 5]: 122%

C[C@H](CCCC(=O)NC1CCOC1)[C@H]1CC[C@H]2[C@@H]3[C@@H](O)C[C@@H]4CN(C(=O)OCc5ccccc5)CC[C@]4(C)[C@H]3CC[C@]12C (stereo partly drawn) [Compound 80b, N-{(benzyloxycarbonyl)-3-aza-7β-hydroxy-25-homo-5β-cholan-25-oyl}-3-aminotetrahydrofuran]
activity at 0.1 µM [3, 4]: 122% | activity at 1 µM [3, 5]: 120%

C[C@H](CCC(=O)N1Cc2ccccc2C1)[C@H]1CC[C@H]2[C@@H]3[C@@H](O)C[C@@H]4CNCC[C@]4(C)[C@H]3CC[C@]12C [Compound 81a]
activity at 0.1 µM [3, 4]: 94.2% | activity at 1 µM [3, 5]: 102%

C[C@H](CCCC(=O)NC1CCOC1)[C@H]1CC[C@H]2[C@@H]3[C@@H](O)C[C@@H]4CNCC[C@]4(C)[C@H]3CC[C@]12C (stereo partly drawn) [Compound 82b, N-{(3-aza-7β-hydroxy-25-homo-5β-cholan-25-oyl)}-3-aminotetrahydrofuran]
activity at 0.1 µM [3, 4]: 96.2% | activity at 1 µM [3, 5]: 97.5%

S-(3-Aza-7β-hydroxy-5β-cholan-24-oyl)-phenylmethanethiol [Compound 64a]
ATP production relative to control levels ([3]; 100 nM): returning ATP production to control levels | Average ATP Response 100 nM [3, 4]: 118.2% | Average ATP Response 1 μM [3, 5]: 111.4%

From patent US20250320246A1, “3-AZASTEROID COMPOUNDS FOR THE TREATMENT OF DISEASES RELATED TO MITROCHONDRIAL FUNCTION” (NZP UK LIMITED, priority 2022, published 2025)
